According to paper PMC6630837 (Pharmaceuticals, 2019):
Entries after “also recorded” stand apart in the source; their conditions may differ.

Assays:
[1] = target: acetylcholinesterase (AChE) (Electrophorus electricus, UniProt O42275); test: Acetylcholinesterase inhibition, Ellman's colorimetric assay; format: biochemical; conditions: 100 µM compound; read-out: AChE inhibitory efficacy (percentage of inhibition)
Description: For cholinesterase inhibition tests (acetylcholinesterase (AChE, electrophorus
was kept within 1.25% cuvette concentration.
AChE and at 18.2 µM concentration for BuChE. […]

[2] = tested on: SH-SY5Y human neuroblastoma cells; test: Neuroprotection against Aβ1-42-induced toxicity, MTT cell viability assay; format: cell-based; conditions: 50 μM compound, 20 μM Aβ1-42, 24 h, 37 °C
Description: Neuroprotective activity assays against Aβ1-42-induced toxicity. From all compounds tested in the above presented assay, the pair 8 and 19 presented the strongest neuroprotective potential, with convincing proof on the importance of the aglycone for the desired neuroprotective effects against H2O2-induced cell injury. […] Here, the MTT assay was used once again to assess cell viability of SH-SY5Y cells treated with 20 μM of Aβ1-42, in the presence of 50 μM of each compound. Similar protocols have been used to screen candidates for AD therapy. Moreover, based on the existing evidence that in situ spontaneous fibrillization of Aβ1-42 in the incubation mixture is important in the triggering of neurotoxic effects, we added the Aβ1-42 peptide fragment dissolved in DMSO to the culture medium prior to incubation, together with each compound in study. […] Even though there is published evidence that undifferentiated SH-SY5Y cells are not as sensitive to Aβ1-42-induced neurite degeneration and apoptosis as differentiated ones, with 20 μM of Aβ1-42 we were able to observe a significant decrease in cellular MTT reduction capacity, corresponding to roughly half of the cell viability rates observed in the non-treated control.
Neuroprotective assays in human neuroblastoma (SH-SY5Y) cells. […] Differences were considered significant when P < 0.05.

[3] = Cell viability (MTT) assay in Caco-2 cells; format: cell-based, human; conditions: human; Caco-2 cells, 0.1 μM to 100 μM; read-out: IC50 (cytotoxicity)
Description: (§1) Cell viability assay in human epithelial colorectal adenocarcinoma (Caco-2) and human liver hepatocellular (HepG2) cells. Caco-2 and HepG2 Cells were cultured in DMEM-Dulbecco’s modified Eagle’s medium (Sigma-Aldrich) supplemented with 10% (v/v) inactivated fetal bovine serum (PAA Laboratories GmbH), 2 mM L-glutamine (Sigma-Aldrich), 100 U/mL penicillin and 100 μg/mL streptomycin (Sigma-Aldrich), in a humidified incubator at 37 °C with a 5% CO2 atmosphere. Cells (3 × 10^4 cells/well) were seeded into 96-well plates and incubated at 37 °C in 5% CO2 atmosphere. After 24 h, compounds were added at different concentrations (0.1–100 μM) and incubated in the same conditions. DMSO controls were performed to evaluate a possible solvent cytotoxicity, while pure DMSO was used as a cytotoxic drug. After the established incubation time with compounds, MTT (5 mg/mL) in PBS (Sigma-Aldrich) was added (10 μL) to each well. After 3 h incubation at 37 °C, in 5% CO2, the supernatant was removed. The formazan crystals were solubilized using ethanol/DMSO (1:1) (100 μL), and the absorbance values were determined at 570 nm on the microplate reader Victor3 from PerkinElmer Life Sciences.

[4] = tested on: human epithelial colorectal adenocarcinoma (Caco-2) cells; test: Cell viability (MTT) assay in Caco-2 cells; format: cell-based; conditions: at 100 μM
Description: as §1

[5] = LogD7.4 determination (octan-1-ol/phosphate buffer, LC-MS); format: physicochemical; conditions: octan-1-ol/phosphate buffer, pH 7.4, octan-1-ol/phosphate buffer pH 7.4, 25 °C; read-out: Log D7.4 (partition coefficient at pH 7.4)
Description: LogD7.4 determination. The in-silico prediction tool ALOGPS [4] was used to estimate the octanol-water partition coefficients (log P) of the compounds. […] For each category, two different ratios (volume of octan-1-ol to volume of buffer) were defined as experimental parameters (Table 2).
Equal amounts of phosphate buffer (0.1 M, pH 7.4) and octan-1-ol were mixed and shaken vigorously for 5 min to saturate the phases. The mixture was left until separation of the two phases, and the buffer was retrieved. Stock solutions of the test compounds were diluted with buffer to a concentration of 1 μM. For each compound, three determinations per octan-1-ol:buffer ratio were performed in different wells of a 96-well plate. The respective volumes of buffer-containing analyte (1 μM) were pipetted to the wells and covered by saturated octan-1-ol according to the chosen volume ratio. […] The aqueous phase was transferred to a 96-well plate for analysis by liquid chromatography-mass spectrometry (LCMS, see below).
Results are presented as the mean ± SD of three independent experiments.
LC-MS measurements. […] The system was controlled with the Agilent MassHunter Workstation Data Acquisition software (version B.01.04). The column used was an AtlantisR T3 C18 column (2.1 × 50 mm) with a 3 μm-particle size (Waters Corp., Milford, MA, USA). The mobile phase consisted of eluent A: 10 mM ammonium acetate, pH 5.0 in 95:5, H2O:MeCN; and eluent B: MeCN containing 0.1% formic acid. The flow rate was maintained at 0.6 mL/min. […] MS parameters such as fragmentor voltage, collision energy, and polarity were optimized individually for each drug, and the molecular ion was followed for each compound in the multiple reaction monitoring mode. The concentrations of the analytes were quantified by the Agilent Mass Hunter Quantitative Analysis software (version B.01.04).

[6] = target: T1, butyrylcholinesterase (BuChE) (Equus caballus, UniProt P81908); test: biochemical; conditions: 100 µM compound
T1 construct: (BuChE, equine serum); from tissue; host or cells: equine serum
Description: Experimental procedures for cholinesterase inhibition a s sa y s. For cholinesterase inhibition tests (acetylcholinesterase (AChE, electrophorus
el ec t r ic u s) a n d b ut yr ylcholinesterase (BuChE, equine serum), the Ellman’s cholorimetric assay1 was followed, with minor modifications. DMSO
was kept within 1.25% cuvette concentration. The chromogenic agent DTNB [5,5’-dithiobis(2-nitrobenzoic acid)] was fixed at 0.975 mM
con centration; 0. 1 M phosphate buffer (pH 8. 0) was employed, T = 25 °C, and the reaction was monitored for 125 s. […]
of inhibition, the substrate concentration (acetylthiocholine iodide for AChE; S- butyr ylthiocholine iodide for BuChE) was fixed at 29 µM for
AChE and at 18.2 µM concentration for BuChE.
Lineweaver-Burk plot (or double reciprocal plot, 1/V vs . 1/ [S ]) wa s u se d for estimating both, the mode of inhibition and the inhibition constants […]
Competitive inhibition (inhibitor only bonds the free enzyme):
KKiiii = [II ]KKMM iiaaaa
M i xe d inhibition (inhibitor binds both, the free and the complexed enzyme) :
Uncompetitive (the inhibitors only binds the complexed enzyme):
N on -competitive (inhibitor binds both the free enzyme and the complexed enzyme with equal affinity) :
Table S3. […]
of the synthesized flavone analogues at 100 µ M.
C omp ou n d N o. AChE B uChE

T1 sequence (P81908 whole entry): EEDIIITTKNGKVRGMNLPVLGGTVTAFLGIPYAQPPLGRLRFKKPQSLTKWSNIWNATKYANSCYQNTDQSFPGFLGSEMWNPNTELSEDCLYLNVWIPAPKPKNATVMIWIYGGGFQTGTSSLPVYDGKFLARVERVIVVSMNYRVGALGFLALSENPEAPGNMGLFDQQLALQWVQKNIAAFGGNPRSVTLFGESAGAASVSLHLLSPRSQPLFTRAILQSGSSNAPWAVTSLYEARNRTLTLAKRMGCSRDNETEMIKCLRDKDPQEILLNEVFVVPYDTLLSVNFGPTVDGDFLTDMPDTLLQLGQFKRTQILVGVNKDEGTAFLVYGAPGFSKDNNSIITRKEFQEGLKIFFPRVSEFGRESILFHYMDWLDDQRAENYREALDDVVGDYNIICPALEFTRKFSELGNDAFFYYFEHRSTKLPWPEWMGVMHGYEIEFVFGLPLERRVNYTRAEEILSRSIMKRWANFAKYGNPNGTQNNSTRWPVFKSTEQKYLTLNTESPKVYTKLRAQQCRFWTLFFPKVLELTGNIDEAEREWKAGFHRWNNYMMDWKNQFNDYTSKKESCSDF
Sequence of acetylcholinesterase (AChE) (O42275 24-633): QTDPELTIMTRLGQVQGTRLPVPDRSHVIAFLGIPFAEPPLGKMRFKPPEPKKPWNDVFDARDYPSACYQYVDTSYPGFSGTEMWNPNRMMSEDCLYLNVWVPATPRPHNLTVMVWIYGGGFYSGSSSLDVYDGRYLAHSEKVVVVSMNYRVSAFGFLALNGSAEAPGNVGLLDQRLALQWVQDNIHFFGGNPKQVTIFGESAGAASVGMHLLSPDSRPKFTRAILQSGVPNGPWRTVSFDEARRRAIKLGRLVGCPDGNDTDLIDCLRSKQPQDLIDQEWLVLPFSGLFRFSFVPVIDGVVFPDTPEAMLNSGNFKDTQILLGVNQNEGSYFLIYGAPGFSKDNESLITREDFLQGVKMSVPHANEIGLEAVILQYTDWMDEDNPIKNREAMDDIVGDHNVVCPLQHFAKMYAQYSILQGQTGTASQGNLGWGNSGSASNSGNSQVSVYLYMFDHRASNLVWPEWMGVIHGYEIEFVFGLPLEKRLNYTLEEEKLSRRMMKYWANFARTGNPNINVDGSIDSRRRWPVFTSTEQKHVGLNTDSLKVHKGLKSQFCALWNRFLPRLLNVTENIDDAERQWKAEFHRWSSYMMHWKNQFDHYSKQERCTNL

## O=c1cc(-c2ccc(N3CCOCC3)cc2)oc2c([C@@H]3O[C@H](CO)[C@@H](O)[C@H](O)[C@H]3O)c(O)cc(O)c12 [Compound 19, 8-(β-D-Glucopyranosyl)-5,7-dihydroxy-4′-(morpholin-4-yl)flavone]
[1]
  inhibition at 100 µM: 18%
[2]
  Neuroprotective effect against Aβ1-42-induced toxicity (MTT cell viability): the result with the highest significance when compared to controls; also recorded: the result with the highest significance when compared to the controls
[2]; listed as 37
  Neuroprotective effect against Aβ1-42-induced toxicity (MTT cell viability): fully rescued
[3]
  IC50: ≥ 100 µM
[4]
  Cytotoxicity towards Caco-2 cells: did not show any cytotoxicity
[5]
  logD: 1.8 ± 0.2
[6]
  BuChE inhibitory efficacy (percentage of inhibition): n.i .
